Results from patent US9474790B2, “Stable, protracted GLP-1/glucagon receptor co-agonists for medical use” (Novo Nordisk A/S, priority 2013, dated 2016).
pIC50: −log10 of the molar value. Numbered stars: 1 amine (or outer) side, 2 acyl side, 3 side chain; on linkers, the order of the positions; unused ones are H or OH. Square brackets hold non-standard residues; d marks the D form. Side chains are listed from the residue outwards. Peptide text beside a SMILES is read from it. * marks the point of attachment. C18 diacid = O=C(O)CCCCCCCCCCCCCCCCC(=O)*; γGlu = O=C(O)[C@H](CCC(=O)[*:2])N[*:1]; AEEA = NCCOCCOCC(=O)O; Aib = CC(C)(N)C(=O)O

target: T1, human GLP-1 receptor (Homo sapiens, UniProt P43220); experiment: GLP-1 receptor binding, 125I-GLP-1 displacement SPA on isolated membranes; details: displacement of 125I-GLP-1 from membranes; read-out: IC50 GLP-1R
T1 construct: expressed in transfected cells; host or cells: BHK cells (parent BHKTS13), clone FCW467-12A/KZ10-1, with CRE luciferase
Outline: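 SPA displacement of 125I-GLP-1(7-36)NH2 from membranes of BHK cells expressing human GLP-1 receptor, with WGA beads, in 50 mM HEPES, 5 mM EGTA, 5 mM MgCl2, 0.005% Tween 20, pH 7.4. Incubated 2 h at 30°C; IC50 by non-linear regression, run at ≤0.001% or 2.0% final serum albumin.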

T1 sequence (P43220 24-463): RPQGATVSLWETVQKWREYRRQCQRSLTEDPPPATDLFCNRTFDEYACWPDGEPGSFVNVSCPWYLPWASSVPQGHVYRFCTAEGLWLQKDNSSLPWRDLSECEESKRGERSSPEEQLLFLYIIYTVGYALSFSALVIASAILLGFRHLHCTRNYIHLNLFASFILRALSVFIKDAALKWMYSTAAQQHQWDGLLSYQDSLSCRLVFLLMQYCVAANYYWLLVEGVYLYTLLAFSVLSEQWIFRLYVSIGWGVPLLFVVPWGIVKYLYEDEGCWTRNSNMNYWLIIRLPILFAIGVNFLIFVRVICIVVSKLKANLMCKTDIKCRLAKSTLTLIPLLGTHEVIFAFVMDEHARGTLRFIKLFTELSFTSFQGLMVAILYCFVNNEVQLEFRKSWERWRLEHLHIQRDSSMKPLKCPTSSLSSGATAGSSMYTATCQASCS

| Compound | pIC50 |
| --- | --- |
| CC(C)C[C@H](NC(=O)[C@H](Cc1ccc(O)cc1)NC(=O)[C@H](CCCCN)NC(=O)[C@H](CO)NC(=O)[C@H](CC(C)C)NC(=O)[C@H](CC(=O)O)NC(=O)[C@H](CO)NC(=O)[C@@H](NC(=O)[C@H](Cc1ccccc1)NC(=O)[C@@H](NC(=O)CNC(=O)[C@H](Cc1c[nH]cn1)NC(=O)C(C)(C)NC(=O)[C@@H](N)Cc1c[nH]cn1)[C@@H](C)O)[C@@H](C)O)C(=O)N[C@@H](CCC(=O)O)C(=O)N[C@@H](CO)C(=O)N[C@@H](CCCCN)C(=O)N[C@@H](CCCNC(=N)N)C(=O)N[C@@H](C)C(=O)N[C@@H](CCCNC(=N)N)C(=O)N[C@@H](CCC(=O)O)C(=O)N[C@@H](Cc1ccccc1)C(=O)N[C@H](C(=O)N[C@@H](CCC(N)=O)C(=O)N[C@@H](Cc1c[nH]c2ccccc12)C(=O)N[C@@H](CC(C)C)C(=O)N[C@@H](CC(C)C)C(=O)N[C@@H](CCCCNC(=O)CC[C@H](NC(=O)CC[C@H](NC(=O)COCCOCCNC(=O)COCCOCCNC(=O)CC[C@H](NC(=O)CCCCCCCCCCCCCCCCC(=O)O)C(=O)O)C(=O)O)C(=O)O)C(=O)N[C@H](C(N)=O)[C@@H](C)O)C(C)C [Example 27, N^ε28-[(4S)-4-carboxy-4-[[(4S)-4-carboxy-4-[[2-[2-[2-[[2-[2-[2-[[(4S)-4-carboxy-4-(17-carboxyheptadecanoylamino)butanoyl]amino]ethoxy]ethoxy]acetyl]amino]ethoxy]ethoxy]acetyl]amino]butanoyl]amino]butanoyl]-[Aib2,His3,Leu10,Glu15,Lys17,Arg20,Glu21,Leu27, Lys28]-Glucagon amide] (H-H[Aib]HGTFTSDLSKYLESKRAREFVQWLLK([γGlu-γGlu-AEEA-AEEA-γGlu-C18 diacid])T-NH2; N-terminus assumed) | 9.05 |
| CC(C)C[C@H](NC(=O)[C@H](Cc1ccc(O)cc1)NC(=O)[C@H](CCCCN)NC(=O)[C@H](CO)NC(=O)[C@H](CC(C)C)NC(=O)[C@H](CC(=O)O)NC(=O)[C@H](CO)NC(=O)[C@@H](NC(=O)[C@H](Cc1ccccc1)NC(=O)[C@@H](NC(=O)CNC(=O)[C@H](Cc1c[nH]cn1)NC(=O)C(C)(C)NC(=O)[C@@H](N)Cc1c[nH]cn1)[C@@H](C)O)[C@@H](C)O)C(=O)N[C@@H](CCC(=O)O)C(=O)N[C@@H](CO)C(=O)N[C@@H](CCCNC(=N)N)C(=O)N[C@@H](CCCNC(=N)N)C(=O)N[C@@H](C)C(=O)N[C@@H](CCCNC(=N)N)C(=O)N[C@@H](CCC(=O)O)C(=O)N[C@@H](Cc1ccccc1)C(=O)N[C@H](C(=O)N[C@@H](CCC(N)=O)C(=O)N[C@@H](Cc1c[nH]c2ccccc12)C(=O)N[C@@H](CC(C)C)C(=O)N[C@@H](CC(C)C)C(=O)N[C@@H](CCCCNC(=O)CC[C@H](NC(=O)COCCOCCNC(=O)COCCOCCNC(=O)CC[C@H](NC(=O)CC[C@H](NC(=O)CCCCCCCCCCCCCCCCC(=O)O)C(=O)O)C(=O)O)C(=O)O)C(=O)N[C@H](C(N)=O)[C@@H](C)O)C(C)C [Example 30, N^ε28-[(4S)-4-carboxy-4-[[2-[2-[2-[[2-[2-[2-[[(4S)-4-carboxy-4-[[(4S)-4-carboxy-4-(17-carboxyheptadecanoylamino)butanoyl]amino]butanoyl]amino]ethoxy]ethoxy]acetyl]amino]ethoxy]ethoxy]acetyl]amino]butanoyl]-[Aib2,His3,Leu10,Glu15,Arg20,Glu21,Leu27,Lys28]-Glucagon amide] (H-H[Aib]HGTFTSDLSKYLESRRAREFVQWLLK([γGlu-AEEA-AEEA-γGlu-γGlu-C18 diacid])T-NH2; N-terminus assumed) | 8.85 |
| CC(C)C[C@H](NC(=O)[C@H](Cc1c[nH]c2ccccc12)NC(=O)[C@H](C)NC(=O)[C@@H](NC(=O)[C@H](Cc1ccccc1)NC(=O)[C@H](CCC(=O)O)NC(=O)[C@H](CCCNC(=N)N)NC(=O)[C@H](C)NC(=O)[C@H](CCCNC(=N)N)NC(=O)[C@H](CCCNC(=N)N)NC(=O)[C@H](CO)NC(=O)[C@H](CCC(=O)O)NC(=O)[C@H](CC(C)C)NC(=O)[C@H](Cc1ccc(O)cc1)NC(=O)[C@H](CCCCN)NC(=O)[C@H](CO)NC(=O)[C@H](CC(C)C)NC(=O)[C@H](CC(=O)O)NC(=O)[C@H](CO)NC(=O)[C@@H](NC(=O)[C@H](Cc1ccccc1)NC(=O)[C@@H](NC(=O)CNC(=O)[C@H](Cc1c[nH]cn1)NC(=O)C(C)(C)NC(=O)[C@@H](N)Cc1c[nH]cn1)[C@@H](C)O)[C@@H](C)O)C(C)C)C(=O)N[C@@H](CC(C)C)C(=O)N[C@@H](CCCCNC(=O)CC[C@H](NC(=O)COCCOCCNC(=O)COCCOCCNC(=O)CC[C@H](NC(=O)CC[C@H](NC(=O)CCCCCCCCCCCCCCCCC(=O)O)C(=O)O)C(=O)O)C(=O)O)C(=O)N[C@H](C(N)=O)[C@@H](C)O [Example 31, N^ε28-[(4S)-4-carboxy-4-[[2-[2-[2-[[2-[2-[2-[[(4S)-4-carboxy-4-[[(4S)-4-carboxy-4-(17-carboxyheptadecanoylamino)butanoyl]amino]butanoyl]amino]ethoxy]ethoxy]acetyl]amino]ethoxy]ethoxy]acetyl]amino]butanoyl]-[Aib2,His3,Leu10,Glu15,Arg20,Glu21,Ala24,Leu27, Lys28]-Glucagon amide] (H-H[Aib]HGTFTSDLSKYLESRRAREFVAWLLK([γGlu-AEEA-AEEA-γGlu-γGlu-C18 diacid])T-NH2; N-terminus assumed) | 8.82 |
| CC(C)C[C@H](NC(=O)[C@H](Cc1ccc(O)cc1)NC(=O)[C@H](CCCCN)NC(=O)[C@H](CO)NC(=O)[C@H](CC(C)C)NC(=O)[C@H](CC(=O)O)NC(=O)[C@H](CO)NC(=O)[C@@H](NC(=O)[C@H](Cc1ccccc1)NC(=O)[C@@H](NC(=O)CNC(=O)[C@H](Cc1c[nH]cn1)NC(=O)C(C)(C)NC(=O)[C@@H](N)Cc1c[nH]cn1)[C@@H](C)O)[C@@H](C)O)C(=O)N[C@@H](CCC(=O)O)C(=O)N[C@@H](CO)C(=O)N[C@@H](CCCNC(=N)N)C(=O)N[C@@H](CCCNC(=N)N)C(=O)N[C@@H](C)C(=O)N[C@@H](CCCNC(=N)N)C(=O)N[C@@H](CCC(=O)O)C(=O)N[C@@H](Cc1ccccc1)C(=O)N[C@H](C(=O)N[C@@H](CCC(N)=O)C(=O)N[C@@H](Cc1c[nH]c2ccccc12)C(=O)N[C@@H](CC(C)C)C(=O)N[C@@H](CC(C)C)C(=O)N[C@@H](CCCCNC(=O)CC[C@H](NC(=O)CC[C@H](NC(=O)COCCOCCNC(=O)COCCOCCNC(=O)CC[C@H](NC(=O)CCCCCCCCCCCCCCCCC(=O)O)C(=O)O)C(=O)O)C(=O)O)C(=O)N[C@H](C(N)=O)[C@@H](C)O)C(C)C [Example 33, N^ε28-[(4S)-4-carboxy-4-[[(4S)-4-carboxy-4-[[2-[2-[2-[[2-[2-[2-[[(4S)-4-carboxy-4-(17-carboxyheptadecanoylamino)butanoyl]amino]ethoxy]ethoxy]acetyl]amino]ethoxy]ethoxy]acetyl]amino]butanoyl]amino]butanoyl]-[Aib2,His3,Leu10,Glu15,Arg20,Glu21,Leu27,Lys28]-Glucagon amide] (H-H[Aib]HGTFTSDLSKYLESRRAREFVQWLLK([γGlu-γGlu-AEEA-AEEA-γGlu-C18 diacid])T-NH2; N-terminus assumed) | 9.22 |
| CC(C)C[C@H](NC(=O)[C@H](Cc1ccc(O)cc1)NC(=O)[C@H](CCCCN)NC(=O)[C@H](CO)NC(=O)[C@H](CC(C)C)NC(=O)[C@H](CC(=O)O)NC(=O)[C@H](CO)NC(=O)[C@@H](NC(=O)[C@H](Cc1ccccc1)NC(=O)[C@@H](NC(=O)CNC(=O)[C@H](Cc1c[nH]cn1)NC(=O)C(C)(C)NC(=O)[C@@H](N)Cc1c[nH]cn1)[C@@H](C)O)[C@@H](C)O)C(=O)N[C@@H](CCC(=O)O)C(=O)N[C@@H](CO)C(=O)N[C@@H](CCCCN)C(=O)N[C@@H](CCCNC(=N)N)C(=O)N[C@@H](C)C(=O)N[C@@H](CCCNC(=N)N)C(=O)N[C@@H](CCC(=O)O)C(=O)N[C@@H](Cc1ccccc1)C(=O)N[C@H](C(=O)N[C@@H](CCC(N)=O)C(=O)N[C@@H](Cc1c[nH]c2ccccc12)C(=O)N[C@@H](CC(C)C)C(=O)N[C@@H](CC(C)C)C(=O)N[C@@H](CCCCNC(=O)CC[C@H](NC(=O)CC[C@H](NC(=O)CC[C@H](NC(=O)CCCCCCCCCCCCCCCCC(=O)O)C(=O)O)C(=O)O)C(=O)O)C(=O)N[C@H](C(N)=O)[C@@H](C)O)C(C)C [Example 34, N^ε28-[(4S)-4-carboxy-4-[[(4S)-4-carboxy-4-[[(4S)-4-carboxy-4-(17-carboxyheptadecanoylamino)butanoyl]amino]butanoyl]amino]butanoyl]-[Aib2,His3,Leu10,Glu15,Lys17,Arg20,Glu21,Leu27,Lys28]-Glucagon amide] (H-H[Aib]HGTFTSDLSKYLESKRAREFVQWLLK([γGlu-γGlu-γGlu-C18 diacid])T-NH2; N-terminus assumed) | 9.70 |
